Assay results reported in the NIST ThermoML archive (doi:10.1021/acs.jced.5b00717).
Numbers after ± are expanded uncertainties.

Assay: an = ratio of the nth substance listed
Conditions: 101 kPa, Liquid; for mass density: Vibrating tube method; for viscosity: rotating cylinders

C[N+](C)(C)CCO.[Cl-] [choline chloride] + OCC(O)CO
Conditions | mass density, a2 = 2 [kg/m3] | mass density, a2 = 4 [kg/m3] | viscosity, a2 = 2 [mPa·s] | viscosity, a2 = 4 [mPa·s]
293.15 K | 1194 ± 5 | 1217 ± 5 | 514.6 ± 41 | 578.2 ± 48
298.15 K | 1191 ± 5 | 1214 ± 5 | 365.7 ± 25 | 400.3 ± 28
303.15 K | 1188 ± 5 | 1211 ± 5 | 265.7 ± 15 | 283.4 ± 17
308.15 K | 1185 ± 5 | 1208 ± 5 | 197 ± 9.3 | 205.1 ± 9.9
313.15 K | 1183 ± 5 | 1205 ± 5 | 148.9 ± 5.6 | 151.7 ± 5.8
318.15 K | 1180 ± 5 | 1202 ± 5 | 114.7 ± 3.4 | 113 ± 3.3
323.15 K | 1177 ± 5 | 1200 ± 5 | 89.81 ± 2 | 87.96 ± 1.9

C[N+](C)(C)C.[Cl-] [tetramethylammonium chloride] + OCC(O)CO
Conditions | mass density, a2 = 2 [kg/m3] | mass density, a2 = 4 [kg/m3] | viscosity, a2 = 2 [mPa·s] | viscosity, a2 = 4 [mPa·s]
293.15 K | 1158 ± 5 | 1180 ± 5 | 581.8 ± 48 | 557.5 ± 46
298.15 K | 1155 ± 5 | 1177 ± 5 | 406.9 ± 29 | 384.7 ± 27
303.15 K | 1152 ± 5 | 1174 ± 5 | 290.5 ± 17 | 272 ± 16
308.15 K | 1149 ± 5 | 1171 ± 5 | 212.4 ± 10 | 197 ± 9.3
313.15 K | 1147 ± 5 | 1168 ± 5 | 158.5 ± 6.3 | 145.8 ± 5.4
318.15 K | 1144 ± 5 | 1166 ± 5 | 120.7 ± 3.7 | 110.2 ± 3.1
323.15 K | 1141 ± 5 | 1163 ± 5 | 93.57 ± 2.1 | 84.8 ± 1.7
